From patent US8778627B2, “Enzyme substrate comprising a functional dye and associated technology and methods” (Biotium, Inc., priority 2006, dated 2014)
Values belong to the molecule of their own block, whether it stands above or below them.

Key:
calf thymus dsDNA = assay: DNA titration of nucleic acid dye-based substrates and controls; format: binding; conditions: 1 μM in pH 7.4 TE buffer, 30-minute incubation at room temperature, excitation 485 nm, emission 530 nm
Protocol: In this example, nucleic acid dye-based caspase-3 substrates, Substrate No. 19 and Substrate No. 20, and respective control compounds, Compound No. 7 and Compound No. 24, were titrated with varying amounts of calf thymus dsDNA and the fluorescence signals of the solutions were recorded. Briefly, the substrates and the respective controls were prepared as generally described above in relation to Example 51. Multiple wells of a 96-well plate were loaded with the substrate (100 μL, 1 μM) or the respective control (100 μL, 1 μM). Each well was then titrated with 5 μL of one of the seven DNA stock solutions of 2.1, 4.1, 8.2, 16.4, 32.8 65.6 and 127.5 μg/mL concentration, respectively, in pH 7.4 TE buffer. After a 30-minute incubation at room temperature, the fluorescence reading of each well was recorded with a SpectraMax Germini XS fluorescence microplate reader (Molecular Devices Corp., Sunnyvale, Calif.), with the excitation wavelength and the emission collection wavelength set at 485 nm and 530 nm, respectively.
DNA titrations of Compound No. 21, a nucleic acid dye-based HDAC substrate, and Compound No. 23, a control associated with Compound No. 21, were titrated with varying amounts of calf thymus dsDNA in the manner generally described above in relation to Example 52.

calf thymus DNA = assay: Measurement of fluorescence spectra in the presence of DNA; format: binding; conditions: 1 μM in pH 7.4 TE buffer, excess calf thymus DNA, excitation 600 nm, FIG. 1
Protocol: Stock solutions of nucleic acid dye-based substrates and respective control compounds were prepared by dissolving each compound in DMSO at 1 mg/mL concentration. The stock solutions were diluted into a pH 7.4 buffer (TE buffer) comprising Tris (10 mM), EDTA (1 mM) and NaCl (50 mM) to give a final concentration of 1 μM. Dye solutions containing an excess amount of DNA were prepared by adding a sufficient amount of calf thymus DNA calculated to yield a ratio of greater to or equal to 50 DNA base pairs per dye molecule. A fluorescence spectrum for each dye was recorded before and after the addition of DNA using a Jasco F-750 fluorescence spectrophotometer, with the fluorescence excitation wavelength set at λA-25 nm or 600 nm, where λA is the absorption maximum for each dye in the presence or the absence of DNA, and emission collection wavelength set at 660 nm.

caspase-3 = molecular target: T1, caspase-3 (Homo sapiens, UniProt P42574); assay: In vitro enzymatic assay for nucleic acid dye-based substrates for caspase-3; format: biochemical; conditions: 10 μM, caspase-3 0.1 unit/mL, salmon sperm dsDNA 3.3 μg/mL, excitation 485 nm, emission 530 nm, FIG. 3
T1 construct: purchased Biovision Inc., Mountain View, Calif
T1 sequence (P42574 29-175 limits assumed): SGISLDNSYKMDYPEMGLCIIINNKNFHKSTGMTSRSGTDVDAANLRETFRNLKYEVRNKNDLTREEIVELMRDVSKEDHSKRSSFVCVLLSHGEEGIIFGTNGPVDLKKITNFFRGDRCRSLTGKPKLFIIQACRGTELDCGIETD
T1 sequence (P42574 176-277 limits assumed): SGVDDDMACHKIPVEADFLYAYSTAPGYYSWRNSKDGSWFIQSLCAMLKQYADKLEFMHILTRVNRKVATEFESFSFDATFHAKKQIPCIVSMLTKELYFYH
Protocol: In this example, nucleic acid dye-based caspase-3 substrates were assayed in the presence of caspase-3 and dsDNA by monitoring the fluorescence increase. In one example, Substrate No. 19 (10 μM) was incubated with caspase-3 (0.1 unit/mL) (Biovision Inc., Mountain View, Calif.) and salmon sperm dsDNA (3.3 μg/mL) in a caspase assay buffer (100 μL; HEPES buffer (50 mM, pH 7.4), NaCl (100 mM), EDTA (1 mM), CHAPS (0.1%), DTT (10 mM), PMSF (1 mM) and glycerol (10%)) in a well of a black 96-well plate. The plate was then placed in a SpectraMax Germini XS fluorescence microplate reader (Molecular Devices Corp., Sunnyvale, Calif.), with the excitation wavelength set at 485 nm and emission collection wavelength set at 530 nm, to measure the fluorescence signal over time, as shown in FIG. 3.

[1] = molecular target: T2, caspase-3 activity in Jurkat cells (Homo sapiens, UniProt P42574); assay: Detection of caspase-3 activity in live cells by flow cytometry; format: cell-based; conditions: for caspase-3-positive cell identification: Jurkat cells, substrate 10 μM for 15 minutes, FL1 channel
T2 construct: A flask of Jurkat cells were induced with staurosporine (1 μM) for apoptosis; endogenous in cells; host or cells: Jurkat cells induced with staurosporine
T2 sequence (P42574 29-175 limits assumed): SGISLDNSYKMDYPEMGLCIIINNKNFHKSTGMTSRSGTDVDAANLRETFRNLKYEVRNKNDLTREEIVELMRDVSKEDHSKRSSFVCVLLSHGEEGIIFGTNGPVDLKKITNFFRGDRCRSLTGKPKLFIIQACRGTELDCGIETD
T2 sequence (P42574 176-277 limits assumed): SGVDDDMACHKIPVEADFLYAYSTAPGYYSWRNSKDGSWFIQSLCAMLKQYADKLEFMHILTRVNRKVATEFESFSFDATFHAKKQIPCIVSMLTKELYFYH
Protocol: In this example, Jurkat cells were used to test whether Substrate No. 19 may be used to detect caspase-3 activity, or a lack thereof, within live cells by generating a nucleic acid dye that forms fluorescence upon binding to DNA. A flask of Jurkat cells were induced with staurosporine (1 μM) for apoptosis. Aliquots of the induced Jurkat cells were taken at 1 hour, 2.5 hours and 5 hours after induction, respectively, and aliquots of uninduced Jurkat cells, which served as negative controls, were taken at the same times. Substrate No. 19 was added to each Jurkat cell culture medium to give a final concentration of 10 μM and each resulting medium was allowed to incubate for 15 minutes before undergoing flow cytometry analysis using the FL1 channel for green fluorescence. […] For example, a stimulation time of 1 hour, 2.5 hours and 5 hours was associated with a 10%, 80% and 97% caspase-3-positive cell identification, respectively, as may be seen in the representations B, C and D of FIG. 4, respectively. One hour of staurosporine induction was required for Substrate No. 19 to reliably detect the presence of caspase-3-positive cells. Detection of intracellular caspase-3 activity via Substrate No. 19 is possible after only 15 minutes of incubation time, without necessitating cell destruction. Thus, it may be possible to continuously monitor enzymatic activity over more or less the entire course of cellular life via an enzyme substrate such as Substrate No. 19.

[2] = molecular target: T2, caspase-3 activity in Jurkat cells; assay: Detection of caspase-3 activity in live cells by fluorescence microscopy; format: cell-based; conditions: Jurkat cells induced 4 hours with staurosporine (1 μM), substrate 10 μM for 15 minutes, confocal microscope, FIG. 5
Protocol: (§1) Substrate No. 19 (10 μM) was incubated for 15 minutes with Jurkat cells that had been induced for 4 hours with staurosporine (1 μM). Separately, Substrate No. 19 (10 μM) was incubated for 15 minutes with uninduced Jurkat cells, which served as a negative control. For each of the cell cultures, cells (1×10^5) were taken, pelleted and then resuspended in Annexin V binding buffer (100 μL; HEPES buffer (10 mM, pH 7.4), NaCl (140 mM) and CaCl2 (2.5 mM)) in a tube, whereupon Texas Red-conjugated Annexin V (5 μL, 50 μg/mL) (Biotium Inc., Hayward, Calif.) was added to each tube. After 15 minutes of incubation at room temperature, a cell culture (5 μL) of the induced cells or the uninduced cells was spotted onto a slide, which was then mounted with a coverslip and sealed with nail polish. The cells were examined with a 510 Meta UV/Vis confocal microscope. […] The green fluorescence is indicative of nuclear DNA staining by the nucleic acid dye that is formed from substrate cleavage via caspase-3. The red fluorescence is indicative of the staining of phosphatidylserine (PS) by the Texas Red-conjugated Annexin V, a fluorescent stain that is used to identify apoptotic cells.

phosphatidylserine (PS) = assay: Texas Red-Annexin V staining of apoptotic Jurkat cells by confocal microscopy; format: cell-based; conditions: Jurkat cells induced 4 hours with staurosporine (1 μM), 15 minutes of incubation at room temperature, confocal microscope, FIG. 5
Protocol: as §1

Molecule: C[n+]1c(C=C2C=CN(CCCCCC(=O)NCCN)c3ccccc32)sc2ccccc21 [Compound No. 7]
- fluorescence response to dsDNA concentration (DNA titration) (calf thymus dsDNA): fluorescently responsive to the amount of DNA present

Molecule: CC(=O)NCCCCC(NC(=O)OC(C)(C)C)C(=O)NCCNC(=O)CCCCCN1C=C/C(=C\c2sc3ccccc3[n+]2C)c2ccccc21.[I-] (stereo not drawn) [Compound No. 21]
- fluorescence response to dsDNA concentration (DNA titration) (calf thymus dsDNA): relatively insensitive to the presence of DNA

Molecule: C[n+]1c(/C=C2\C=CN(CCCCCC(=O)NCCNC(=O)C(CCCCN)NC(=O)OC(C)(C)C)c3ccccc32)sc2ccccc21.[I-] (stereo not drawn) [Compound No. 23]
- fluorescence response to dsDNA concentration (DNA titration) (calf thymus dsDNA): fluorescently responsive to the amount of DNA present

Molecule: C[n+]1c(/C=C/C=C2\C=CN(CCCC(=O)NCCN)c3ccccc32)sc2ccccc21 [Compound No. 24]
- fluorescence emission in the presence of DNA, control versus substrate (calf thymus DNA): substantially more fluorescent than Substrate No. 20
- fluorescence response to dsDNA concentration (DNA titration) (calf thymus dsDNA): fluorescently responsive to the amount of DNA present

- fluorescence increase over time with caspase-3 and dsDNA (caspase-3): substrate for caspase-3 enzyme
- caspase-3-positive cell identification ([1]; staurosporine (1 μM) stimulation 1 hour): 10%
- caspase-3-positive cell identification ([1]; staurosporine (1 μM) stimulation 2.5 hours): 80%
- caspase-3-positive cell identification ([1]; staurosporine (1 μM) stimulation 5 hours): 97%
- staurosporine induction required to reliably detect caspase-3-positive cells ([1]; live Jurkat cells, staurosporine 1 μM, substrate 10 μM): One
- incubation time after which detection of intracellular caspase-3 activity is possible ([1]; live Jurkat cells, without cell destruction): 15 min
- fluorescent staining pattern of cells [2]: green fluorescence in cellular nuclei
Molecule: CC(=O)N[C@@H](CC(=O)O)C(=O)N[C@@H](CCC(=O)O)C(=O)N[C@H](C(=O)N[C@@H](CC(=O)O)C(=O)NCCNC(=O)CCCCCN1C=CC(=Cc2sc3ccccc3[n+]2C)c2ccccc21)C(C)C [Substrate No. 19]
- fluorescence response to dsDNA concentration (DNA titration) (calf thymus dsDNA): relatively insensitive to the presence of DNA

Molecule: CC(=O)N[C@H](CC(=O)O)C(=O)N[C@H](CCC(=O)O)C(=O)N[C@@H](C(=O)N[C@H](CC(=O)O)C(=O)NCCNC(=O)CCCN1C=CC(=CC=Cc2sc3ccccc3[n+]2C)c2ccccc21)C(C)C [Substrate No. 20]
- fluorescence response to dsDNA concentration (DNA titration) (calf thymus dsDNA): relatively insensitive to the presence of DNA

B1: Texas Red-conjugated Annexin V: fluorescent stain (Biotium Inc.) that is used to identify apoptotic cells by staining phosphatidylserine (conjugate, UniProt P08758 2-320, looked up)
Annexin A5: AQVLRGTVTDFPGFDERADAETLRKAMKGLGTDEESILTLLTSRSNAQRQEISAAFKTLFGRDLLDDLKSELTGKFEKLIVALMKPSRLYDAYELKHALKGAGTNEKVLTEIIASRTPEELRAIKQVYEEEYGSSLEDDVVGDTSGYYQRMLVVLLQANRDPDAGIDEAQVEQDAQALFQAGELKWGTDEEKFITIFGTRSVSHLRKVFDKYMTISGFQIEETIDRETSGNLEQLLLAVVKSIRSIPAYLAETLYYAMKGAGTDDHTLIRVMVSRSEIDLFNIRKEFRKNFATSLYSMIKGDTSGDYKKALLLLCGEDD
modifications: Texas Red dye
notes: fluorescent stain (Biotium Inc.) that is used to identify apoptotic cells by staining phosphatidylserine
- fluorescent staining pattern of cells (phosphatidylserine (PS)): red fluorescence on a cytoplasmic membrane
